{"source": "paper PMC8073686", "about": "“Characterization of Subtype Selective Cannabinoid CB2 Receptor Agonists as Potential Anti-Inflammatory Agents” (Pharmaceuticals, 2021)", "key": {"[1]": {"molecular_target": "T1, CB2 (Homo sapiens, UniProt P34972)", "T1 construct": "expressed in transfected cells; host or cells: HEK293T cells, calcium phosphate transfection, membrane preparation", "T1 sequence (P34972 whole entry)": "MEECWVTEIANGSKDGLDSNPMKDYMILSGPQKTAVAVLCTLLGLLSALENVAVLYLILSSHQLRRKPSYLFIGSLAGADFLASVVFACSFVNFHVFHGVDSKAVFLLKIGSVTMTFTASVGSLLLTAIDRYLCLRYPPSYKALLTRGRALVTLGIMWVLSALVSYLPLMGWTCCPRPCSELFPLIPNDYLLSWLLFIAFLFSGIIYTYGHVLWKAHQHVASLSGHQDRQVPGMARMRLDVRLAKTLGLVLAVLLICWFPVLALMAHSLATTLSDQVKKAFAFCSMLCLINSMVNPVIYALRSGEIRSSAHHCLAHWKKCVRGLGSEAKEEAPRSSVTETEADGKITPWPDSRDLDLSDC", "test": "Competitive [3H]CP55,940 radioligand binding, CB2-transfected HEK293T cell membrane", "from_the_text": "(§1) To evaluate binding affinity of ABK5 analogs that have a difference in the position of substituents in the N-phenyl ring (Figure 1), we performed competitive radiolabeled ligand binding assays using cell membrane from HEK293T cells transfected with human CB2 receptors. […] ABK5-1, ABK5-2, and ABK5-6 dose-dependently competed with [^3H]CP55,940 and decreased the specific binding of the radiolabeled agonist, which reflects the binding of test compounds to CB2. […] Therefore, ABK5-5 was not considered for further evaluation in this study. […] We also examined CB2 selectivity (versus CB1) of the three compounds by performing similar binding assays using membrane from CB1 expressing HEK293 cells instead of CB2 expressing cells. […] Therefore, ABK5-1 and 5-2 maintained the CB2 subtype selectivity of ABK5.\n(§2) In the experiment, 1 × 10^6 HEK293T cells were seeded in a 10-cm cell culture dish and cultured for 24 h. Cells were transfected with CB1 or CB2 using the calcium phosphate method. Approximately one day after transfection, cells were harvested and centrifuged at 4 °C for 5 min at 500× g. The pellet was washed with phosphate buffered saline (PBS) twice and resuspended in PBS containing 1% protease-inhibitor cocktail (Sigma-Aldrich, St. Louis, MO, USA) consisting of 104 mM 4-(2-aminoethyl) benzene sulfonyl fluoride hydrochloride (AEBSF), 80 μM apronitin, 4 mM bestatin, 1.64 mM E-64, 2 mM leupeptin, 1.5 mM pepstatin A. Then the cells were subjected to nitrogen cavitation under 750 psi for 5 min using a Parr cell disruption bomb. The lysate was centrifuged at 500× g for 10 min at 4 °C and the supernatant was spun at 116,000× g for 45 min at 4 °C. The pellet, consisting of the cell membrane expressing CB1 or CB2, was resuspended in TME buffer solution (25 mM Tris-HCl, 5 mM MgCl2, and 1 mM EDTA, pH 7.4) with 7% (w/v) sucrose/TME buffer. The concentration of the membrane protein was determined by the Bradford assay (Bradford, 1976).\nMembrane protein was mixed with 1 nM to 10 μM of the test compounds and 1 nM [^3H]CP55,940 (164.9 Ci/mmol; PerkinElmer life Sciences, Waltham, MA, USA), and TME buffer supplemented with 0.2% BSA was used to bring the total volume to 200 μL. [^3H]CP55,940 acts as tracer and agonists that bind the target receptor compete with [^3H]CP55,940. Samples were incubated for 1 h at 30 °C. Ten μM unlabeled CP55,940 was used to determine non-specific binding. […] A Beckman Coulter 6500 liquid scintillation counter was used to measure the radioactivity of the samples.\nResults are presented as the mean ± standard deviation (S.D.). […] The Ki values in the ligand binding assay were calculated using the Prism software (GraphPad Software Inc., San Diego, CA, USA), using IC50 values obtained from non-linear regression fitted to the one-site binding model. […]"}, "[2]": {"molecular_target": "T2, CB1 receptor (Homo sapiens, UniProt P21554)", "T2 construct": "expressed in transfected cells; host or cells: HEK293T cells (called 'HEK293 cells' in Results), calcium phosphate transfection, membrane preparation", "T2 sequence (P21554 whole entry)": "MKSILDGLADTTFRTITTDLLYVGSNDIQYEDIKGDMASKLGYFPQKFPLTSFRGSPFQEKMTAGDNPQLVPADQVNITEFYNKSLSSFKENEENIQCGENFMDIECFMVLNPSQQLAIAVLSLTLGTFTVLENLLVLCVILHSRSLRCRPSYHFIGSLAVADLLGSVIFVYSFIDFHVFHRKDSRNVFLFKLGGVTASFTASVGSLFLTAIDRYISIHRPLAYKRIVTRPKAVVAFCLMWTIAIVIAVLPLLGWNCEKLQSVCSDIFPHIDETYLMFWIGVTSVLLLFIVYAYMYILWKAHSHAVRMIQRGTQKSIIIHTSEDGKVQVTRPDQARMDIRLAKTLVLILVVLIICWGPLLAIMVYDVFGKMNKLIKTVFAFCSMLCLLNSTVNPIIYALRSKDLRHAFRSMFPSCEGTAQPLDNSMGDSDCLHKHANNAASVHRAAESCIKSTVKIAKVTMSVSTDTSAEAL", "test": "Competitive [3H]CP55,940 radioligand binding, membrane from CB1 expressing HEK293 cells", "from_the_text": "as §1, §2\nMembrane protein was mixed with 1 nM to 10 μM of the test compounds and 1 nM [^3H]CP55,940 (164.9 Ci/mmol; PerkinElmer life Sciences, Waltham, MA, USA), and TME buffer supplemented with 0.2% BSA was used to bring the total volume to 200 μL. [^3H]CP55,940 acts as tracer and agonists that bind the target receptor compete with [^3H]CP55,940. Samples were incubated for 1 h at 30 °C. Ten μM unlabeled CP55,940 was used to determine non-specific binding. Reactions were stopped by adding 5% BSA/TME buffer (w/v) and samples were filtered through a Brandel cell harvester using Whatman GF/C filter paper. Ultima Gold XR liquid scintillation cocktail (PerkinElmer Life Sciences, Waltham, MA, USA) was then added and vortexed. A Beckman Coulter 6500 liquid scintillation counter was used to measure the radioactivity of the samples.\nResults are presented as the mean ± standard deviation (S.D.). The ligand binding assays and the GTPγS binding assays were both carried out in duplicate for three independent experiments. The Ki values in the ligand binding assay were calculated using the Prism software (GraphPad Software Inc., San Diego, CA, USA), using IC50 values obtained from non-linear regression fitted to the one-site binding model. The Cheng-Prusoff equation [48], which is used for calculation of Ki value is shown below. (1) Ki=IC50/1+L/Kd"}, "[3]": {"molecular_target": "T1, CB2", "test": "[35S]GTPγS binding assay (G-protein coupling), CB2 containing HEK293T cell membrane", "type": "biochemical", "details": "stimulation of [35S]GTPγS binding; mean ± S.D.", "procedure": "We also examined if the compounds can induce G-protein coupling and act as CB2 agonists. Three compounds, ABK5-1, ABK5-2, and ABK5-6, were subjected to [^35S]GTPγS binding assays. Increasing concentrations, from 1 nM to 10 μM of the test compounds, were incubated with CB2 containing HEK293T cell membrane and [^35S]GTPγS, which binds to Gi/o in the membrane upon CB2 activation and G-protein coupling. All three compounds stimulated dose-dependent increases of specific [^35S]GTPγS binding (Figure 3).\nas §2\nGTPγS binding assay buffer ([…], pH 7.4, 3 mM MgCl2, 0.2 mM EGTA, and 100 mM NaCl) membrane protein, 1 nM to 10 μM of the test compounds, 0.1 nM [^35S] GTPγS (1250 Ci/mmol; PerkinElmer Life Sciences, Waltham, MA, USA), 0.1% fatty acid free BSA (w/v), 10 μM guanosine diphosphate (GDP) and GTPγS was incubated for 1 h at 30 °C with shaking. […] A Beckman Coulter 6500 liquid scintillation counter was used to measure the radioactivity of the samples. […]"}, "[4]": {"molecular_target": "T1, CB2", "design": "method as in PMID 30951717", "details": "competition with [3H]CP55,940; determined previously; cited from earlier work"}, "[5]": {"molecular_target": "T2, CB1 receptor", "design": "method as in PMID 30951717", "details": "cited from earlier work"}, "[6]": {"molecular_target": "T1, CB2", "design": "method as in PMID 30951717", "details": "stimulation of [35S]GTPγS binding; determined previously; cited from earlier work"}, "[7]": {"tested_on": "TNF-α mRNA in Jurkat cells", "design": "method as in PMID 33712283", "details": "concentration not given; cited from earlier work"}, "[8]": {"tested_on": "TNF-α production in Jurkat cells", "design": "method as in PMID 33712283", "details": "concentration not given; cited from earlier work"}}, "note": "Where two headings read alike, the source gives them in different places."}
{"smiles": "CCOC(=O)c1ccccc1NC(=O)CN(c1cc(C)ccc1C)S(=O)(=O)c1ccccc1", "note": "[ABK5-6]", "values": [{"measurement": "Ki", "setting": "[1]; competition with [3H]CP55,940, mean ± S.D.", "result": "14 ± 2", "unit": "nM"}, {"measurement": "CB1 binding (in words)", "setting": "[2]", "result": "weak CB1 binding in the micromolar range"}, {"measurement": "Ki", "setting": "[2]; competition with [3H]CP55,940, N.B. = no specific binding detected up to 10 μM of test compounds", "result": "> 1000", "unit": "nM"}, {"measurement": "EC50", "setting": "[3]", "result": "10 ± 5", "unit": "nM"}]}
{"smiles": "CCOC(=O)c1ccccc1NC(=O)CN(c1cccc(C)c1C)S(=O)(=O)c1ccccc1", "note": "[ABK5, ethyl 2(2-(N-(2,3-dimethylphenyl)phenylsulfonamido)acetamido)benzoate]", "values": [{"measurement": "Ki", "setting": "[4]", "result": "16 ± 14", "unit": "nM"}, {"measurement": "Ki CB1 (CP55,940)", "setting": "[5]; N.B. = no specific binding detected up to 10 μM, determined previously", "result": "N.B. ^c"}, {"measurement": "CB1 binding: no binding detected up to", "setting": "[5]", "result": "> 10", "unit": "µM"}, {"measurement": "EC50", "setting": "[6]", "result": "4 ± 3", "unit": "nM"}, {"measurement": "decrease of TNF-α mRNA", "setting": "[7]", "result": 33, "unit": "%"}, {"measurement": "decrease of TNF-α protein level", "setting": "[8]", "result": 30, "unit": "%"}]}
{"smiles": "CCOC(=O)c1ccc(NC(=O)CN(c2cccc(C)c2C)S(=O)(=O)c2ccccc2)cc1", "note": "[ABK5-5]", "values": [{"measurement": "CB2 binding, extent as % of total binding", "setting": "[1]; data not shown, Ki not calculated", "result": "≤ 60", "unit": "%"}]}
